This note sets out measurements from BindingDB's records for patent US12378192 (Chia Tai Tianqing Pharmaceutical Group Co., 2025).

Some results are limits rather than exact numbers.

A word on the IC50: it is the concentration that inhibits the measured activity by half. Lower therefore signals inhibition by little substance.

The data set addresses Cytochrome P450 3A4 (Homo sapiens, UniProt P08684). The data set is described as follows: CYP450 Enzyme Induction Study. As for the experimental part:
A final incubation system of 500 μL contained 50 μL of liver microsomes (protein concentration: 0.2 mg/mL, Corning), 1 μL of mixed specific substrates of CYP450 (CYP1A2, CYP2B6, CYP2C9, CYP2C19, CYP2D6, CYP3A4), 398 μL of PBS (pH 7.4), 1 μL of specific positive inhibitor (positive control) or test compound (in acetonitrile) and 50 μL of NADPH+MgCl2. Samples were prepared in duplicate of 0.5 mL for each CYP450 subtype. For each tube, the 450 μL mixed solution of substrates and enzyme and the NADPH solution were separately pre-incubated at 37° C. for 5 min. The 50 μL mixed solution of NADPH+MgCl2 was added for reaction. At 30 min, 50 μL of the mixture was taken and 300 μL of glacial acetonitrile containing an internal standard was added to terminate the reaction. Additionally, 2 blanks of 500 μL each were prepared in parallel without adding NADPH as the negative control group.

Cytochrome P450 3A4, sequence (P08684 whole entry): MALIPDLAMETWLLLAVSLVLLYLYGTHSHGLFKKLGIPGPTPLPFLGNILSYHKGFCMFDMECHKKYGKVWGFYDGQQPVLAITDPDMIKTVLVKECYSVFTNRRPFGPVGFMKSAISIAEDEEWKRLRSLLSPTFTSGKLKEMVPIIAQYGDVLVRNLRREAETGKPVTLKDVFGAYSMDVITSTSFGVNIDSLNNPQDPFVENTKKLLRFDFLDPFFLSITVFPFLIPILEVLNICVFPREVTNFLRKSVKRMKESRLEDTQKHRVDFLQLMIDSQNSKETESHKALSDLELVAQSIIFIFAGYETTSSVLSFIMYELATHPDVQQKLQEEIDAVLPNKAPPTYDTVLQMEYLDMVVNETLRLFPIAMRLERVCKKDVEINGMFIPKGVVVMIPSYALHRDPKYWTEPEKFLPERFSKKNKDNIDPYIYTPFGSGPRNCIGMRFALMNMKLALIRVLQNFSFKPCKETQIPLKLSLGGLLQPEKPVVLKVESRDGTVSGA

In the case of `Cc1c(C(=O)Nc2ccc(F)c(C#N)c2)c(C)n(C)c1C(=O)C(=O)NC(C)C(F)(F)F` (stereo unspecified) [US12378192, Compound of formula I], the IC50 is > 200 µM.
